Measurements from ChEMBL document CHEMBL6103645, “Modular Synthesis of Bioactive Selenoheterocycles for Efficient Cancer Therapy via Electrochemical Selenylation/Cyclization” (J Med Chem, 2025).
Activity calls are given as the source filed them. The calls are words filed in the database; no cut-off is given here.

Assays:
[1] = Toxicity in male athymic nude mouse assessed as morphological changes in heart at 5 to 20 mg/kg, iv administered every 2 days and measured after 2 weeks by H and E staining based analysis; type: organism-based; conditions: in vivo, 336 h, dose 5-20 mg/kg
NCI-H460 [2] = test: Downregulation of DDX10 expression in human NCI-H460 cells; type: functional, cell-based
[3] = Toxicity in male athymic nude mouse assessed as morphological changes in liver at 5 to 20 mg/kg, iv administered every 2 days and measured after 2 weeks by H and E staining based analysis; type: organism-based; conditions: in vivo, 336 h, dose 5-20 mg/kg
NCI-H460 [4] = test: Antitumor activity against human NCI-H460 cells xenografted in athymic nude mouse assessed as change in tumor volume at 5 mg/kg, iv administered every 2 days and measured after 2 weeks; type: functional, organism-based
[5] = Toxicity in iv dosed BALB/c mouse assessed as maximum tolerated dose administered every 2 days and measured after 2 weeks; type: organism-based; conditions: in vivo
HT-29 = test: Anti-tumor activity against human HT-29 cells assessed as cell viability incubated for 48 hrs by CCK-8 assay; type: functional, cell-based
NCI-H460 [6] = test: Antitumor activity against human NCI-H460 cells xenografted in iv dosed athymic nude mouse assessed as tumor growth inhibition administered every 2 days and measured after 2 weeks; type: functional, organism-based; conditions: dose 5-20 mg/kg
[7] = Toxicity in male athymic nude mouse assessed as liver metastasis at 5 to 20 mg/kg, iv administered every 2 days and measured after 2 weeks by H and E staining based analysis; type: organism-based; conditions: in vivo, 336 h, dose 5-20 mg/kg
NCI-H460 [8] = test: Antitumor activity against human NCI-H460 cells xenografted in athymic nude mouse assessed as tumor growth inhibition at 5 mg/kg, iv administered every 2 days and measured after 2 weeks; type: functional; conditions: NCI-H460, 336 h, read-out: TGI
NCI-H460 [9] = test: Antitumor activity against human NCI-H460 cells xenografted in athymic nude mouse assessed as increase in gamma-H2AX level in tumor at 20 mg/kg, iv administered every 2 days and measured after 2 weeks by immunofluorescence assay; type: functional, organism-based
[10] = Toxicity in male athymic nude mouse assessed as liver damage at 20 to 80 mg/kg, iv administered every 2 days and measured after 2 weeks; type: organism-based; conditions: in vivo, 336 h, dose 20-80 mg/kg
NCI-H460 [11] = test: Inhibition of colony formation in human NCI-H460 cells assessed as reduction in colony formation rate upto 12.5 uM incubated for 14 days by crystal violet staining based analysis; type: functional, cell-based; conditions: time 14.0 day
NCI-H460 [12] = test: Upregulation of gamma-H2AX expression in human NCI-H460 cells by Western blot analysis; type: functional, cell-based
NCI-H460 [13] = test: Induction of apoptosis in human NCI-H460 cells assessed as increase in BAX level at 500 nM incubated for 24 hrs by Western blot analysis; type: functional, cell-based
NCI-H460 [14] = test: Antitumor activity against human NCI-H460 cells xenografted in athymic nude mouse assessed as tumor growth inhibition at 10 mg/kg, iv administered every 2 days and measured after 2 weeks; type: functional; conditions: NCI-H460, 336 h, read-out: TGI
NCI-H460 [15] = test: Induction of apoptosis in human NCI-H460 cells assessed as downregulation of Bcl2 expression at 500 nM incubated for 24 hrs by Western blot analysis; type: functional, cell-based
NCI-H460 [16] = test: Inhibition of cell invasion in human NCI-H460 cells assessed as decrease in number of invading cells at 500 nM incubated for 48 hrs by transwell assay; type: functional, cell-based
NCI-H460 [17] = test: Inhibition of epithelial mesenchymal transition in human NCI-H460 cells assessed as increase in E-cadherin protein expression by Western blotting analysis; type: functional, cell-based
NCI-H460 [18] = test: Effect on DDX10 level in human NCI-H460 cells by TPP analysis; type: functional, cell-based
[19] = Toxicity in male athymic nude mouse assessed as morphological changes in spleen at 5 to 20 mg/kg, iv administered every 2 days and measured after 2 weeks by H and E staining based analysis; type: organism-based; conditions: in vivo, 336 h, dose 5-20 mg/kg
NCI-H460 [20] = test: Induction of apoptosis in human NCI-H460 cells assessed as increase in caspase-3 level at 500 nM incubated for 24 hrs by Western blot analysis; type: functional, cell-based
NCI-H460 [21] = test: Anti-migratory activity against human NCI-H460 cells assessed as inhibition of cell migration at 500 nM measured for 48 hrs by wound healing assay; type: functional, cell-based
[22] = Hemolytic activity in BALB/c mouse Red blood cells assessed as hemolysis at 10 to 100 uM incubated for 2 hrs; type: toxicity, cell-based, Erythrocyte; conditions: dose 10-100 µM, read-out: Activity
[23] = Toxicity in male athymic nude mouse assessed as spleen damage at 20 to 80 mg/kg, iv administered every 2 days and measured after 2 weeks; type: organism-based; conditions: in vivo, 336 h, dose 20-80 mg/kg
[24] = Hemolytic activity in BALB/c mouse Red blood cells assessed as effect on morphological structure at 10 to 100 uM incubated for 2 hrs; type: toxicity, cell-based; conditions: erythrocyte, dose 10-100 µM
[25] = Toxicity in male athymic nude mouse assessed as kidney damage at 20 to 80 mg/kg, iv administered every 2 days and measured after 2 weeks; type: organism-based; conditions: in vivo, 336 h, dose 20-80 mg/kg
[26] = Toxicity in male athymic nude mouse assessed as morphological changes in kidney at 5 to 20 mg/kg, iv administered every 2 days and measured after 2 weeks by H and E staining based analysis; type: organism-based; conditions: in vivo, 336 h, dose 5-20 mg/kg
[27] = Toxicity in male athymic nude mouse assessed as morphological changes in lung at 5 to 20 mg/kg, iv administered every 2 days and measured after 2 weeks by H and E staining based analysis; type: organism-based; conditions: in vivo, 336 h, dose 5-20 mg/kg
[28] = Toxicity in male athymic nude mouse assessed as heart damage at 20 to 80 mg/kg, iv administered every 2 days and measured after 2 weeks; type: organism-based; conditions: in vivo, 336 h, dose 20-80 mg/kg
NCI-H460 [29] = test: Antitumor activity against human NCI-H460 cells xenografted in athymic nude mouse assessed as increase in gamma-H2AX level in tumor at 5 mg/kg, iv administered every 2 days and measured after 2 weeks by immunofluorescence assay; type: functional, organism-based
NCI-H460 [30] = test: Anti-tumor activity against human NCI-H460 cells assessed as cell viability incubated for 48 hrs by CCK-8 assay; type: functional, cell-based; conditions: NCI-H460, 48 h
NCI-H460 [31] = test: Antitumor activity against human NCI-H460 cells xenografted in athymic nude mouse assessed as increase in gamma-H2AX level in tumor at 20 mg/kg, iv administered every 2 days and measured after 2 weeks by Western blot assay; type: functional, organism-based
[32] = Toxicity in male athymic nude mouse assessed as change in body weight at 5 to 20 mg/kg, iv administered every 2 days and measured after 2 weeks; type: organism-based; conditions: in vivo, 336 h, dose 5-20 mg/kg
NCI-H460 [33] = test: Induction of apoptosis in human NCI-H460 cells assessed as apoptosis rate at 500 nM incubated for 24 hrs by annexin V-FITC/PI staining based flow cytometry analysis relative to control; type: functional
NCI-H460 [34] = test: Induction of DNA damage in human NCI-H460 cells assessed as increase in gammaH2AX positive cells by immunofluorescence analysis; type: functional, cell-based
[35] = Toxicity in male athymic nude mouse assessed as lung metastasis at 5 to 20 mg/kg, iv administered every 2 days and measured after 2 weeks by H and E staining based analysis; type: organism-based; conditions: in vivo, 336 h, dose 5-20 mg/kg
[36] = Toxicity in male athymic nude mouse assessed as tumor necrosis at 5 to 20 mg/kg, iv administered every 2 days and measured after 2 weeks by H and E staining based analysis; type: organism-based; conditions: in vivo, 336 h, dose 5-20 mg/kg
NCI-H460 [37] = test: Antitumor activity against human NCI-H460 cells xenografted in athymic nude mouse assessed as change in tumor weight at 5 mg/kg, iv administered every 2 days and measured after 2 weeks; type: functional, organism-based
HeLa = test: Anti-tumor activity against human HeLa cells assessed as cell viability incubated for 48 hrs by CCK-8 assay; type: functional, cell-based
NCI-H460 [38] = test: Anti-tumor activity against DDX10 knockdown human NCI-H460 cells assessed as inhibition of cell viability; type: functional, cell-based
NCI-H460 [39] = test: Antitumor activity against human NCI-H460 cells xenografted in athymic nude mouse assessed as tumor growth inhibition at 20 mg/kg, iv administered every 2 days and measured after 2 weeks; type: functional; conditions: NCI-H460, 336 h, read-out: TGI
[40] = Toxicity in male athymic nude mouse assessed as change in body weight at 20 to 80 mg/kg, iv administered every 2 days and measured after 2 weeks; type: organism-based; conditions: in vivo, 336 h, dose 20-80 mg/kg
NCI-H460 [41] = test: Antitumor activity against human NCI-H460 cells xenografted in athymic nude mouse assessed as change in tumor weight at 10 to 20 mg/kg, iv administered every 2 days and measured after 2 weeks; type: functional, organism-based; conditions: dose 10-20 mg/kg
NCI-H460 [42] = test: Induction of DNA damage in human NCI-H460 cells assessed as increase in gammaH2AX positive cells by DAPI staining based confocal laser scanning microscopic analysis; type: functional, cell-based
NCI-H460 [43] = test: Inhibition of epithelial mesenchymal transition in human NCI-H460 cells assessed as decrease in N-cadherin protein expression by Western blotting analysis; type: functional, cell-based
[44] = biological target: Probable ATP-dependent RNA helicase DDX10 (Homo sapiens) (UniProt Q13206); test: Binding affinity to DDX10 human NCI-H460 cells incubated for 60 mins at 37 to 67 degreeC by CETSA assay; type: cell-based
Sequence of Probable ATP-dependent RNA helicase DDX10 (Homo sapiens) (Q13206 whole entry): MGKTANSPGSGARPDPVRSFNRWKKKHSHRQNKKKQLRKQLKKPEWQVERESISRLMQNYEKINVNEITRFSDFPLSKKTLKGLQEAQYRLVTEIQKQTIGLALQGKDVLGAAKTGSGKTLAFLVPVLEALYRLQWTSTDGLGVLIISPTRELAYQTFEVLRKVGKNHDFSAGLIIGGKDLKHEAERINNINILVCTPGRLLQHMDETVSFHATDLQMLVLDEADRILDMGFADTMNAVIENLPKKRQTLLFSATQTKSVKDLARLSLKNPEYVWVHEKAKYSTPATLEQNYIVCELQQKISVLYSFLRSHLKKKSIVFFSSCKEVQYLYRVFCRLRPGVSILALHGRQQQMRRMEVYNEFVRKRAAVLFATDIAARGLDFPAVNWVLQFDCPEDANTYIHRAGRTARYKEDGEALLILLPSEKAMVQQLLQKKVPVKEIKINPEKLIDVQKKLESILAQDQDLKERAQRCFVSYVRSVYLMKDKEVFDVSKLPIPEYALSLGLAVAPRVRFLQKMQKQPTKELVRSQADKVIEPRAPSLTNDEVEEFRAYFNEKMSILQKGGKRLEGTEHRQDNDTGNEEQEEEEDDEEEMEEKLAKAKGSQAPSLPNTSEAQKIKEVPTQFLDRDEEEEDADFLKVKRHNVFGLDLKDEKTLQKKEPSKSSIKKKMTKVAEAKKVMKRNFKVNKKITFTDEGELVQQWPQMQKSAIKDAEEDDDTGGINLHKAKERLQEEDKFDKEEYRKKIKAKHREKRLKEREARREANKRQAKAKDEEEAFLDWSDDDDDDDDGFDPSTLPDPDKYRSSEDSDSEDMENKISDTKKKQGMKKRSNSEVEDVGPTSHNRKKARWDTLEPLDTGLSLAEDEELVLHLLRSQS

[45] = Toxicity in male athymic nude mouse assessed as lung damage at 20 to 80 mg/kg, iv administered every 2 days and measured after 2 weeks; type: organism-based; conditions: in vivo, 336 h, dose 20-80 mg/kg
MCF7 = test: Anti-tumor activity against human MCF7 cells assessed as cell viability incubated for 48 hrs by CCK-8 assay; type: functional, cell-based

COc1ccc([Se]c2c(-c3ccccc3)ncc3cccnc23)cc1
Activity [1]: Non-toxic
Activity (NCI-H460 [2]): Active
Activity [3]: Non-toxic
Activity (NCI-H460 [4]): Active
MTD at 336 h [5]: 160 mg/kg
Activity (HT-29): inactive
TGI (NCI-H460 [6]): Dose-dependent-effect
Activity [7]: Non-toxic
inhibition in vivo at 5 mg/kg (NCI-H460 [8]): 60%
Activity (NCI-H460 [9]): Active
Activity [10]: Non-toxic
inhibition (NCI-H460 [11]): Active
Activity (NCI-H460 [12]): Active
Activity (NCI-H460 [13]): Active
inhibition in vivo at 10 mg/kg (NCI-H460 [14]): 78%
Activity (NCI-H460 [15]): Active
inhibition (NCI-H460 [16]): Active
inhibition (NCI-H460 [17]): Active
Activity (NCI-H460 [18]): Active
Activity [19]: Non-toxic
Activity (NCI-H460 [20]): Active
Activity (NCI-H460 [21]): Active
hemolysis at 2 h, 100 µM [22]: < 1%
Activity [23]: Non-toxic
Activity [24]: Non-toxic
Activity [25]: Non-toxic
Activity [26]: Non-toxic
Activity [27]: Non-toxic
Activity [28]: Non-toxic
Activity (NCI-H460 [29]): Active
IC50 (NCI-H460 [30]): 1.59 µM
Activity (NCI-H460 [31]): Active
Activity [32]: Non-toxic
Activity (NCI-H460 [33]): 42.6%
Activity (NCI-H460 [34]): Active
Activity [35]: Non-toxic
Activity [36]: Non-toxic
Activity (NCI-H460 [37]): Active
Activity (HeLa): inactive
Activity (NCI-H460 [38]): Active
inhibition in vivo at 20 mg/kg (NCI-H460 [39]): 88%
Activity [40]: Non-toxic
Activity (NCI-H460 [41]): inactive
Activity (NCI-H460 [42]): Active
N-cadherin expression decrease (qualitative activity) (NCI-H460 [43]): Active
Activity [44]: Active
Activity [45]: Non-toxic
Activity (MCF7): inactive
